Measured values taken from patent publication EP0115547B1 (priority 1983, dated 1984).

Test system: T7-Phagen
Conditions: pH 7

SMILES	Kehrwert der pyrimidin-dimeräquivalenten Dosis	1n [N(t)/N(O)]=-1 zugehörige Bebrütungs- beziehungsweise Inkubationszeit [Minuten]	Kehrwert der pyrimidindimeräquivalenten Dosis	pyrimidindimeräquivalente Dosis [Mol - Minute/I]
CN(N=O)C(N)=O [Nitrosomethylharnstoff]	0,76 1 Mol . Minute	–	–	–
Cc1ncc(C[n+]2csc(CCO)c2C)c(N)n1 [Vitamin B1]	–	291	0,03 l/Mol· Minute	29
CN(Cc1cnc2nc(N)nc(N)c2n1)c1ccc(C(=O)N[C@@H](CCC(=O)O)C(=O)O)cc1 [4-Desoxy-4-amino-10-methylfolsäure]	11 1 Mol . Minute	–	–	–
CC(=O)N1CC1 [N-(Acetyl)-äthylenimin]	33 1 Mol . Minute	–	–	–
CS(=O)(=O)OCCNCC(O)C(O)CNCCOS(C)(=O)=O (stereo not shown) [1,4-Di-{2'-(methylsulfonyl)-oxy-äthylamino}-1,4-di-{desoxy}-ery-thrit-dimethylsulfat]	111 1 Mol . Minute	–	–	–
